Data reported in patent publication US20070116781A1, “Hydrogen Cyanamide Pesticide Formulations” (priority 2005, published 2007).

Columns and labels:
Hutcheson soybean = experiment: Crop (soybean) conditions after soil treatment; format: in vivo; settings: 57 d after treatment; for Number of Plants/Pot: 5 seeds/pot
Description: In this study, the soil was naturally infested with four species of nematodes, two of which were deleterious and two beneficial, and observations were made of both the nematode survival and the growth of the soybean plants. Stock solutions of hydrogen cyanamide at 1.0% by weight and propionic acid at 5.0% by weight, both in water, were prepared, the hydrogen cyanamide from a phosphate-buffered 50% aqueous solution. Planting pots measuring 10 cm in diameter, each containing 1 kg of soil, were used. […] The resulting plants were then removed from the pots, the root systems were washed, and the number of plants in each pot was determined. The weights of both fresh shoots and roots were also determined as well as the shoot height and the relative health of the root system, using a subjective index. Soil samples were also collected, and the soil and roots were incubated to determine nematode populations. Treatments were arranged in randomized complete block design with seven replications per treatment, and statistical evaluation of the data was performed with analyses of variance (ANOVA) and standard regression procedures. Fischer's Least Significant Difference at p 0.05 was calculated when appropriate. The results of these tests are listed as final test results in Tables II, III, and IV, with nematode populations in the soil listed in Table II, the nematode populations in the root systems in Table III, and the plant and root parameters of the soybean shoots in Table IV.

sicklepod = experiment: Herbicidal activity, phosphate-free cyanamide and propionic acid, post-emergence, uncovered pots; format: in vivo, Senna obtusifolia
Text: (§1) The procedures in this example differed from those of Example 2, however, by the use of hydrogen cyanamide crystals free of phosphate ion to prepare the aqueous hydrogen cyanamide solution, by the use of post-emergence application, and by the omission of any covering of the pots during any part of the test. Observations were made for total weed growth, and individual observations were also made for yellow nutsedge, crabgrass, sicklepod, and momingglory. Stock solutions of hydrogen cyanamide at 1.25% by weight and propionic acid at 5.0% by weight, both in water, were prepared as before, except that the hydrogen cyanamide solution, as noted above, was prepared by dissolving hydrogen cyanamide crystals in water in the absence of phosphate ion. […] The weeds were allowed to grow for three weeks before the treatment chemicals were applied. […] Data analyses were performed in the same manner as Examples 1 and 2. Table IX lists the results in weeds per pot for all weeds, Table X for yellow nutsedge, Table XI for crabgrass, Table XII for sicklepod, and Table XIII for morningglory, all both with propionic acid alone at various application rates and with […]

yellow nutsedge = experiment: as above; format: in vivo, Cyperus esculentus
Text: as §1, with “application” for “application rates and with”

all weeds = experiment: Herbicidal activity, cyanamide and propionic acid, pre-emergence, covered pots; format: in vivo
Description: The weeds used in these tests were grown from a standard weed seed pack of common annual and perennial weeds representing an extreme weed situation. The weeds included yellow nutsedge (Cyperus esculentus), crabgrass (Digitaria sanguinalis), pigweed (Amaranthus spp.), momingglory (Ipomoea spp.), sicklepod (Senna obtusifolia) and other annual weeds. Observations of the effects on the weed population as a whole were made, and individual observations were made for yellow nutsedge, crabgrass, and sicklepod. Stock solutions of hydrogen cyanamide at 1.25% by weight and propionic acid at 5.0% by weight, both in water, were prepared, the hydrogen cyanamide from a phosphate-buffered 50% aqueous solution. […] Data analyses were performed in the same manner as Example 1. The results expressed in weeds per pot are listed in Table V for all weeds, Table VI for yellow nutsedge, Table VII for crabgrass, and Table VIII for sicklepod, all at various application rates for both hydrogen cyanamide and propionic acid.

[1] = 6 d after treatment, C2H5CO2H 100 mg/kg soil
[2] = 6 d after treatment, C2H5CO2H 200 mg/kg soil
[3] = 6 d after treatment, C2H5CO2H 300 mg/kg soil
[4] = 6 d after treatment, C2H5CO2H 400 mg/kg soil
[5] = 6 d after treatment, C2H5CO2H 500 mg/kg soil
[6] = 13 d after treatment, C2H5CO2H 100 mg/kg soil
[7] = 13 d after treatment, C2H5CO2H 200 mg/kg soil
[8] = 13 d after treatment, C2H5CO2H 300 mg/kg soil
[9] = 13 d after treatment, C2H5CO2H 400 mg/kg soil
[10] = 13 d after treatment, C2H5CO2H 500 mg/kg soil
[11] = 20 d after treatment, C2H5CO2H 100 mg/kg soil
[12] = 20 d after treatment, C2H5CO2H 200 mg/kg soil
[13] = 20 d after treatment, C2H5CO2H 300 mg/kg soil
[14] = 20 d after treatment, C2H5CO2H 400 mg/kg soil
[15] = 20 d after treatment, C2H5CO2H 500 mg/kg soil
[16] = 20 d after treatment, cyanamide 150 mg/kg soil
[17] = 6 d after treatment, cyanamide 150 mg/kg soil
[18] = 13 d after treatment, cyanamide 150 mg/kg soil
[19] = hydrogen cyanamide 125 mg/kg of soil alone, all intervals

CCC(=O)O [C2H5CO2H, propionic acid]
Number of Plants/Pot (Hutcheson soybean; C2H5CO2H 250 mg/kg soil): 3.7
Fresh Shoot Weight (Hutcheson soybean; C2H5CO2H 250 mg/kg soil): 19.6 g
Root Condition Index (Hutcheson soybean; C2H5CO2H 250 mg/kg soil): 2.1
Shoot Height (Hutcheson soybean; C2H5CO2H 250 mg/kg soil): 26.9 cm
Weeds Per Pot: Sicklepod (sicklepod; [1]): 3.1
Weeds Per Pot: Sicklepod (sicklepod; [2]): 1.3
Weeds Per Pot: Sicklepod (sicklepod; [3]): 0.9
Weeds Per Pot: Sicklepod (sicklepod; [4]): 0.4
Weeds Per Pot: Sicklepod (sicklepod; [5]): 0.7
Weeds Per Pot: Sicklepod (sicklepod; [6]): 3.6
Weeds Per Pot: Sicklepod (sicklepod; [7]): 2.4
Weeds Per Pot: Sicklepod (sicklepod; [8]): 1.4
Weeds Per Pot: Sicklepod (sicklepod; [9]): 1.6
Weeds Per Pot: Sicklepod (sicklepod; [10]): 2
Weeds Per Pot: Sicklepod (sicklepod; [11]): 3.1
Weeds Per Pot: Sicklepod (sicklepod; [12]): 2.3
Weeds Per Pot: Sicklepod (sicklepod; [13]): 1.9
Weeds Per Pot: Sicklepod (sicklepod; [14]): 1.9
Weeds Per Pot: Sicklepod (sicklepod; [15]): 2.1
Weeds Per Pot: Yellow Nutsedge (yellow nutsedge; [1]): 2.4
Weeds Per Pot: Yellow Nutsedge (yellow nutsedge; [2]): 4
Weeds Per Pot: Yellow Nutsedge (yellow nutsedge; [3]): 1.9
Weeds Per Pot: Yellow Nutsedge (yellow nutsedge; [4]): 3
Weeds Per Pot: Yellow Nutsedge (yellow nutsedge; [5]): 2.1
Weeds Per Pot: Yellow Nutsedge (yellow nutsedge; [6]): 3
Weeds Per Pot: Yellow Nutsedge (yellow nutsedge; [7]): 4.9
Weeds Per Pot: Yellow Nutsedge (yellow nutsedge; [8]): 3.3
Weeds Per Pot: Yellow Nutsedge (yellow nutsedge; [9]): 4.7
Weeds Per Pot: Yellow Nutsedge (yellow nutsedge; [10]): 3.9
Weeds Per Pot: Yellow Nutsedge (yellow nutsedge; [11]): 3.1
Weeds Per Pot: Yellow Nutsedge (yellow nutsedge; [12]): 5.4
Weeds Per Pot: Yellow Nutsedge (yellow nutsedge; [13]): 4.7
Weeds Per Pot: Yellow Nutsedge (yellow nutsedge; [14]): 5.3
Weeds Per Pot: Yellow Nutsedge (yellow nutsedge; [15]): 4.1

N#CN [Cyanamide, hydrogen cyanamide]
Number of Plants/Pot (Hutcheson soybean; cyanamide 20 mg/kg soil): 4
Number of Plants/Pot (Hutcheson soybean; cyanamide 40 mg/kg soil): 3.9
Number of Plants/Pot (Hutcheson soybean; cyanamide 60 mg/kg soil): 4.7
Number of Plants/Pot (Hutcheson soybean; cyanamide 80 mg/kg soil): 4.4
Number of Plants/Pot (Hutcheson soybean; cyanamide 120 mg/kg soil): 4.9
Fresh Shoot Weight (Hutcheson soybean; cyanamide 20 mg/kg soil): 21.7 g
Root Condition Index (Hutcheson soybean; cyanamide 20 mg/kg soil): 1.6
Shoot Height (Hutcheson soybean; cyanamide 20 mg/kg soil): 26.4 cm
Fresh Shoot Weight (Hutcheson soybean; cyanamide 40 mg/kg soil): 20.5 g
Root Condition Index (Hutcheson soybean; cyanamide 40 mg/kg soil): 1.4
Shoot Height (Hutcheson soybean; cyanamide 40 mg/kg soil): 26.5 cm
Fresh Shoot Weight (Hutcheson soybean; cyanamide 60 mg/kg soil): 25.5 g
Root Condition Index (Hutcheson soybean; cyanamide 60 mg/kg soil): 1.1
Shoot Height (Hutcheson soybean; cyanamide 60 mg/kg soil): 27 cm
Fresh Shoot Weight (Hutcheson soybean; cyanamide 80 mg/kg soil): 24.95 g
Root Condition Index (Hutcheson soybean; cyanamide 80 mg/kg soil): 1.1
Shoot Height (Hutcheson soybean; cyanamide 80 mg/kg soil): 27.1 cm
Fresh Shoot Weight (Hutcheson soybean; cyanamide 120 mg/kg soil): 29.4 g
Root Condition Index (Hutcheson soybean; cyanamide 120 mg/kg soil): 1.3
Shoot Height (Hutcheson soybean; cyanamide 120 mg/kg soil): 28.7 cm
Weeds Per Pot: All Weeds (all weeds; 8 d after treatment, cyanamide 75 mg/kg soil): 2.6
Weeds Per Pot: All Weeds (all weeds; 8 d after treatment, cyanamide 150 mg/kg soil): 0.6
Weeds Per Pot: All Weeds (all weeds; 14 d after treatment, cyanamide 75 mg/kg soil): 8.7
Weeds Per Pot: All Weeds (all weeds; 14 d after treatment, cyanamide 150 mg/kg soil): 4.6
Weeds Per Pot: All Weeds (all weeds; 20 d after treatment, cyanamide 75 mg/kg soil): 15.1
Weeds Per Pot: All Weeds (all weeds; [16]): 9.9
Weeds Per Pot: All Weeds (all weeds; 27 d after treatment, cyanamide 75 mg/kg soil): 17
Weeds Per Pot: All Weeds (all weeds; 27 d after treatment, cyanamide 150 mg/kg soil): 13.3
Weeds Per Pot: Sicklepod (sicklepod; [17]): 0.6
Weeds Per Pot: Sicklepod (sicklepod; [18]): 1.4
Weeds Per Pot: Sicklepod (sicklepod; [16]): 1
Sicklepod weeds per pot (sicklepod; [19]): about one or fewer sicklepod weeds per pot
Weeds Per Pot: Yellow Nutsedge (yellow nutsedge; [17]): 2.4
Weeds Per Pot: Yellow Nutsedge (yellow nutsedge; [18]): 4.6
Weeds Per Pot: Yellow Nutsedge (yellow nutsedge; [16]): 6
Yellow nutsedge weeds per pot (yellow nutsedge; [19]): about six or fewer yellow nutsedge weeds per pot
